Patent US7282215B2, “Supports for photosensitizer formulations” (The University of British Columbia, priority 2000, dated 2007)

Legend:
[1] = tested on: arthritis in the MRL/1pr mouse; test: Transcutaneous PDT of arthritis, ankle width; assay type: in vivo; settings: 0.5 mg/kg i.v.
Experimental: Arthritis in the MRL/1pr mouse strain was enhanced by giving 2 intradermal injections (thoracic and inguinal sites) with 0.05 ml of complete Freunds adjuvant containing 10 mg/ml heat-inactivated M. tuberculosis. PDT was given on days 0, 10 and 20 following CFA treatment. PDT was carnied out as follows; 3 groups of MRL/1pr mice were injected intravenously with B-B3 at 0.5 mg/kg (copolymer or liposomal formulations), after which they were protected from light. The third group was injected with copolymer alone at an equivalent copolymer concentration to that found in the formulation. An hour later, they were exposed to light at 80 J/cm^2 for […] (8 mW/cm^2).
Ankle width measurements were taken every 5 days prior to PDT treatment.

[2] = Optimization of B-B3 incorporation in 10% w/v P123; assay type: physicochemical
Experimental: Using formulation methods described in Example 5, the aim was to incorporate 2 mg/ml of B-B3 into 10% w/v P123. It was shown by this method that the B-B3 can typically be incorporated at ˜1.8 mg/ml drug (based on absorbance readings and a molar extinction coefficient of 30425) 24 h post-hydration. This translates to approximately 10% drug loss. Unincorporated drug undergoes aggregation in aqueous solutions, and is characterized by the appearance of a 730 nm absorbance peak. Although the formulations can be made completely aggregate free by centrifugation or sterile filtration through 0.2 μm filters, this adds another step in the manufacturing process, which can be avoided by increasing the copolymer:drug ratio.

[3] = pH studies of copolymer formulations; assay type: physicochemical; settings: acidification
Excerpt: Counteracting the oily nature of P123 could be achieved by incorporation of copolymer that is in solid form at room temperature. The use of 1% w/w F127 with 9% w/v P123 instead of 10% P123 (w/v) produced a thin film, which was more readily hydrated. […] This necessitates hydration of the solid drug-polymer with a very mild buffer to counteract acidification which occurs upon use of sterile packed distilled water as commonly practiced in clinical settings. Behavior of poloxamers is unaffected by pH, and the use of buffers would be entirely dependent on ionizable groups present on the drug substance.

[4] = BPD-MA/F127 deposited on lactose: hydration and 0.2 μm filtration; assay type: physicochemical; settings: 5% w/v and 10% w/v F127 deposited on lactose, hydrated in water
Experimental: In this experiment the deposition of the photosensitizer BPD-MA with the block copolymer Pluronic® F127 onto the sugar lactose was examined. Formulations containing 5% (w/v) and a 10% (w/v) F127 were tested. 0.5 g lactose and 10 mg BPD-MA were added to two rotary evaporation flasks. A stock solution of […] F127 was prepared in CH2Cl2. 1.25 ml (for 5% w/v) and 2.5 ml (for 10% w/v) F127 stock solution was added to each flask. The final volume in each flask was made up to 5.0 ml with CH2Cl2 and the components mixed to ensure complete dissolution. The solvent was removed by rotary evaporation at 50° C., and the flask left under vacuum for a further 15 min at 23° C. Micro-thin film deposits were scraped from the walls and hydrated in 5 ml water at 50° C. The formulations were filtered twice using 0.2 μm syringe filters (Acrodisc, polysulphone).

[5] = Vesicle size of liposomal BPD-MA (conventional and lactose micro-thin film); assay type: physicochemical
Experimental: For the standard laboratory preparation the liposomal bilayer components of 20 mg BPD-MA, 65 mg egg phosphatidyl glycerol (EPG) and 94 mg dimyristoyl phosphatidylcholine (DMPC), are combined in a round bottom flask and dissolved in 10 ml methylene dichloride (CH2Cl2). […]. The solvent is removed using standard rotary evaporation (Rotavapor R-124 and Buchi B171 Vacobox pump) leaving a thin film of the bilayer components on the flask wall. Once the thin film is prepared, it is hydrated using 10 ml iso-osmolar lactose (10% w/v) to give a final concentration of 2 mg/ml BPD-MA. Size reduction is carried out by consecutive extrusions through 400 nm, 200 nm, and finally 100 nm pore polycarbonate membranes (5 times through each) under high pressure. […] The final product was lyophilized and can be reconstituted prior to use by addition of water.
10 mg BPD-MA was combined with 32.5 mg phosphatidyl glycerol (EPG) and 47 mg dimyristoyl phosphatidylcholine (DMPC), and dissolved in 5 ml CH2Cl2. 2.5 ml of this solution (containing 5 mg BPD-MA) was then added to […] lactose in a rotary evaporator flask. The solvent was removed under rotary evaporation at 50° C. The film deposited on the glass wall was hydrated by addition of 2.5 ml warm distilled water (60° C.) with swirling. The hydrated material was examined under the microscope. Size reduction was carried out by extrusion of the hydrated material through 400, 200 and 100 nm pore polycarbonate membranes (5× through each) as described in Example 20.
In this experiment the effect of replacing CH2Cl2 with ethanol as a solvent for the sugar proliposomal formulation of photosensitizer and phospholipids was examined. The experiment was carried out as described in Example 21 except with the following changes: 20 mg BPD-MA was combined with 65 mg EPG and 94 mg DMPC, and dissolved in a total volume of 20 ml ethanol with occasional warming in 50° C. water bath. Ethanol was removed under rotary evaporation at 50° C., leaving BPD-MA/lipid coated lactose crystals evenly deposited onto flask wall. Flask was removed from the temperature bath, and left under vacuum for 10 min. The contents of the flask were scraped and hydrated by addition of 10 ml distilled water (60° C.) with swirling. The hydrated material was examined under the microscope and the MLV diameter was measured using laser light scattering on a NICOMP™ 370 Submicron Particle Sizer. Extrusion was then carried out as described in Example 20.
The experimental procedure was carried out was as described in Example 22, with the exception of the following changes. The liposomal bilayer constituents, 32.5 mg of EPG and 47 mg of DMPC, were dissolved in 2 ml ethanol, instead of 20 ml. The solution was warmed to 50° C. in a water bath. This was followed by addition of 10 mg BPD-MA, and the total volume was made up to 4 ml to ensure complete dissolution (2.5 mg/ml final concentration). 0.5 g of lactose was added to the round bottom flask. The solvent was removed by rotary evaporation, and the flask removed from the water bath, and left under vacuum for 1.5 h. For hydration, 5 ml of pre-warmed distilled water (60° C.) was added to flask with swirling. Extrusion of the solution and sizing of the vesicles was carried out as described in Example 22.

[6] = liposomal formulation, light 80 J/cm^2

| Structure (SMILES) | Control of inflammation (increase in ankle swelling) ([1]; copolymer formulation, light 80 J/cm^2 1 h later, PDT days 0, 10, 20) | Control of inflammation (ankle swelling), after day 25 [1, 6] | Control of inflammation (ankle swelling), earlier part of the study [1, 6] | Drug loss ([2]; 2 mg/ml added) | Drug incorporated ([2]; 2 mg/ml added, 24 h post-hydration) | Drug incorporation ([2]; final drug concentration 1 mg/ml) | pH dependency of formulation stability [3] | Drug loss on filtration through 0.2 μm filters [4] | Diameter of MLVs ([5]; hydration of conventional thin films) | Mean diameter of the MLVs ([5]; lactose micro-thin film from ethanol, 92.44% by volume) | Diameter of unilamellar vesicles after extrusion, smaller population ([5]; lactose micro-thin film, 20 ml ethanol, 23.17% by volume) | Diameter of unilamellar vesicles after extrusion, larger population ([5]; lactose micro-thin film, 20 ml ethanol, 76.83% by volume) | Mean diameter of unilamellar vesicles, smaller population ([5]; lactose micro-thin film, reduced ethanol volume, 29.49% by volume) | Mean diameter of unilamellar vesicles, larger population ([5]; lactose micro-thin film, reduced ethanol volume, 70.5% by volume) |
| --- | --- | --- | --- | --- | --- | --- | --- | --- | --- | --- | --- | --- | --- | --- |
| C=Cc1c(C)c2cc3nc(cc4[nH]c(cc5nc(cc1[nH]2)C1(C)C5=CC=C(C(=O)O)C1C(=O)OC)c(C)c4CCC(=O)OC)C(CCC(=O)OC)=C3C (centres unmarked) [B-B3] | highly effective in controlling the inflammation | exacerbation of the inflammatory condition | better suppression of the inflammation compared to the controls | approximately 10% | ~1.8 mg/mL | complete incorporation of all added drug | detrimental to formulation stability |  |  |  |  |  |  |  |
| C=Cc1c(C)c2cc3nc(cc4[nH]c(cc5nc(cc1[nH]2)C(C)=C5CCC(=O)O)c(CCC(=O)OC)c4C)[C@@]1(C)C3=CC=C(C(=O)OC)[C@H]1C(=O)OC [BPD-MA, benzoporphyrin derivative mono-acid-ring A, reference compound] |  |  |  |  |  |  |  | no drug loss | > 1 μm | 690 nm | 47.9 nm | 110.4 nm | 58.4 nm | 132.4 nm |
